Here are results for five molecules from patent US20210113586A1, “NEW USE AND METHODS OF MODULATING IMMUNE RESPONSES” (DIAMYD MEDICAL AB, priority 2018, published 2021).

Holding throughout (type): cell-based, human
The subject of assay [1] is responder CD4+ T cells. Kind of assay: Proliferation of anti-CD3 stimulated GABA responder CD4+ T cells from ND individuals. Particulars: for effect of agonist on proliferation: 100 nM, FIG. 3f. The protocol:
(§1) Peripheral Blood Mononuclear cells (PBMCs) are isolated from blood from donors diagnosed with Type-1 diabetes and healthy controls. Alternatively, CD4-positive cells (T-cells) are further isolated from PBMCs by e.g. MACS beads, FACS or similar technology. […] A reasonable replication, such as 3 cultures of each condition, is performed. A normalized proliferation value for each culture is then calculated by a standard proliferation measurement method, such as by CFSE staining or radioactive thymidine incorporation (requiring additional factors be added during culture) or by staining for proliferation markers.
(§2) In the FIG. 1, the proliferation of cells retrieved from 13 T1D subjects and 15 healthy controls were inspected. […] A normalized proliferation index was calculated for each culture.
(§3) The proliferation of freshly isolated human PBMCs or CD4^+ T cells was evaluated with MTT (3-(4,5-Dimethylthiazol-2-yl)-2,5-Diphenyltetrazolium Bromide) assay (Ring et al., 2012). Cells were suspended in complete medium (RPMI 1640 supplemented with 2 mM glutamine, 25 mM HEPES, 10% heat inactivated fetal bovine serum, 100 U/ml penicillin, 10 mg/ml streptomycin, 5 mM R-mercaptoethanol) in a concentration 1 million cells per milliliter. The assay was performed in 96-well plates in duplicates or triplicates, where each well was pre-coated with 3 μg/ml anti-CD3 antibody for 3-5 h at 37° C. Each well was loaded with 100,000 cells. Drugs were added to the wells at the relevant concentrations. The plate was incubated for 68 h at 37° C. (95% O2, 5% CO2) and then, a media-soluble tetrazolium dye MTT was added to a final concentration of 1 mM after which the plate was incubated for additional 4 h. The plate was then centrifuged at 2,000 RPM for 10 min to pellet the insoluble purple formazan crystals. The supernatant culture media was collected, stored at −80° C. and used for analysis of cytokines using the multiplex proximity extension assay (PEA). The formazan crystal pellet was dissolved in DMSO and the plate was read within 10 min using a Multiskan MS plate reader (Labsystems) at 550 nm. The optical density value was used as the proliferation index value. Drugs were purchased from Sigma-Aldrich or Tocris (Bristol, UK).

The next assay has as its system GABAA receptors. In words: Patch-clamp single-channel current recording in CD4+ T cells. The settings on record: picrotoxin 100 μM; FIG. 3i. The protocol:
GABA-activated currents were recorded by the patch-clamp technique as previously described (Bjurstom et al., 2008, Jin et al., 2011a). Extracellular recording solution contained (in mM): 145 NaCl, 3 KCl, 1 CsCl, 1 CaCl2, 1 MgCl2, 10 glucose and 10 TES; the pH was adjusted to 7.4 with NaOH. To record in the whole-cell configuration, the pipette solution contained (in mM): 136 CsCl, 20 KCl, 1 MgCl2, 3 MgATP and 10 TES; pH was adjusted to 7.3 with CsOH. The pipette solution for the cell-attached configuration contained (in mM): 69 NaCl, 5 KCl, 75 CsCl, 1 CaCl2, 1 MgCl2 and 10 TES; pH was adjusted to 7.4 with NaOH. […] The pipette potential (Vp) was −80 mV (hyperpolarizing) in the whole-cell configuration and −60 mV (depolarizing) in the cell-attached configuration.
For orientation: The patch-clamp technique gives a direct electrical read-out from membranes.

Assay [2] concerns PBMCs from T1D individuals. Kind of assay: Proliferation of anti-CD3 stimulated PBMCs from T1D donors. Particulars: GABA plus picrotoxin. The protocol:
as §1, §2
as §3, with “The optical density value was used as the proliferation index value. Drugs were purchased from Sigma-Aldrich or Tocris (Bristol, UK).” left out

In assay [3] the test system is responder CD4+ T cells. In words: Multiplex PEA of cytokines released into culture medium by responder CD4+ T cells. The settings on record: GABA plus 100 μM picrotoxin. The protocol:
as §3
Plasma samples, and culture media samples that were collected from plate wells at the end of the proliferation assay, were analyzed by multiplex PEA with an Olink Inflammation […] panel, targeting 92 proteins related to inflammation (Olink Proteomics, Uppsala, Sweden) as previously described (Edvinsson et al., 2017, Assarsson et al., 2014, Larsson et al., 2015, Larssen et al., 2017). Briefly, 1 μl of sample (plasma samples or cell culture media samples) or negative control was mixed with 3 μl probe solution containing a set of 92 paires DNA-oligonucleotide-conjugated antibodies. Upon recognition of a target protein by a pair of probes, the DNA oligonucletodies on the antibodies are brought in proximity and hybridize to each other, followed by enzymatic DNA polymerization to form a new DNA molecule. The newly formed DNA molecule is then amplified and quantified using a microfluidic real-time qPCR, BioMark™ HD (Fluidigm, South San Francisco, Calif., USA). The generated quantification cycle (Cq) values are normalized against spiked-in controls to convert Cq values to Normalized Protein eXpression (NPX) value on log2 scale. NPX is an arbitrary unit, which is positively correlated to protein concentration. These NPX data were then converted to linear data, using the formula 2^NPX, prior to further statistical analysis. Limit of detection (LOD) for each protein was defined as three standard deviations above the background. Proteins with levels below LOD were excluded from further data analysis.

The mark [4] stands for this setting: FIG. 5b-c legend, GABA concentration and cell group not given.

`CCOC(OCC)P(=O)(O)CCCNCc1ccc(Cl)c(Cl)c1` [CGP52432]: the “effect of antagonist on proliferation” value in the assay with responder CD4+ T cells [1] (50 μM, FIG. 3e) is “ineffective”.

For the molecule `NC/C=C/C(=O)O` [TACA], in the assay with responder CD4+ T cells [1], the “effect of agonist on proliferation” value is on record as “inhibited the proliferation similar to GABA”.

`NCC(CC(=O)O)c1ccc(Cl)cc1` (stereo not shown) [baclofen]: the “effect of agonist on proliferation” value in the assay with responder CD4+ T cells [1] is reported as “ineffective”.

`NCc1cc(=O)[nH]o1` [muscimol]: the “effect of agonist on proliferation” value with responder CD4+ T cells [1] is “inhibited the proliferation similar to GABA”.

On to picrotoxin [reference compound], for which the “effect on GABA-activated single-channel currents” value in the assay on GABAA receptors was “blocked”. The “effect on GABA-reduced proliferation” value in the assay on responder CD4+ T cells [1] (Example 1, FIG. 1B, GABA plus picrotoxin) is “reversed”. Moreover, the “effect on 500 nM GABA-induced inhibition of proliferation” value with responder CD4+ T cells [1] (picrotoxin, FIG. 3e) is given as “partially reversed”. Besides, the “effect on GABA-reduced proliferation” value in assay [2] (Example 1, FIG. 1D) is listed as “reversed”. The “effect on GABA inhibition of proliferation” value in assay [2] (Example 2, FIG. 3b) is on record as “reversed”. In the assay with responder CD4+ T cells [3] (setting [4]), the “CCL19, 2^NPX normalized to controls, mean and SEM” value is listed as 1.72±0.74; the “CCL20, 2^NPX normalized to controls, mean and SEM” value was 1.43±0.51; the “CXCL11, 2^NPX normalized to controls, mean and SEM” value is recorded as 1.55±0.51. The “effect on GABA inhibition of cytokine release” value in the assay on responder CD4+ T cells [3] (FIG. 5b, c) is on record as “reversed”.
